The results in this text go back to US20060039974A1, “Sustained release preparation” (TAKEDA PHARMACEUTICAL COMPANY LIMITED, priority 2002, published 2006).

This data set can be described thus: Dissolution test, Paddle Method, CTAB-containing The Japanese Pharmacopoeia 2nd fluid. Type of data set: physicochemical. As to conditions: after 10 min; control group; 0.1% CTAB-containing JP 2nd fluid 500 mL, 100 rpm. As to the method:
To be specific, the tablets obtained in Examples 1-3 were subjected to a dissolution test (Paddle Method, 0.1% cetyltrimethylammoniumbromide (CTAB)-containing The Japanese Pharmacopoeia Degradation Test2nd fluid (hereinafter to be abbreviated as CTAB-containing The Japanese Pharmacopoeia Degradation Test 2nd fluid) 500 mL, number of rotation 100 rpm). In addition, as a control group, the powder of compound A was subjected to a similar dissolution test and found to show a dissolution rate of 99% after 10 min.
To be specific, a dissolution test of the tablet obtained in Example 13 was performed in the same manner as in Experimental Example 1. In addition, as a control group, the tablet of Reference Example 1 was subjected to a similar dissolution test and found to show a dissolution rate of 100% after 10 min.
To be specific, each tablet obtained in Examples 7 and 21 was subjected to a dissolution test (Paddle Method, The Japanese Pharmacopoeia Degradation Test 1st fluid (hereinafter to be abbreviated as The Japanese Pharmacopoeia 1st fluid) 500 mL, number of rotation 100 rpm). In addition, in the same manner as above except that the eluent was a CTAB-containing The Japanese Pharmacopoeia 2nd fluid, a dissolution test of the tablets obtained in Examples 7 and 21 was performed. The results are shown in Table 4 and Table 5, respectively.

Take `CC(C)Cn1c(CN)c(-c2ccccc2)c2cc(C(N)=O)ccc2c1=O` [Compound A, 3-(aminomethyl)-2-isobutyl-1-oxo-4-phenyl-1,2-dihydroisoquinoline-6-carboxamide]: the dissolution rate was 99%.
